Holding throughout (test): growth of human tumour cells (NCI), 48 h
The test system of assay [1] is COLO 205 colon.
The subject of assay [2] is HCT-15 colon.
Assay [3] concerns DU-145 prostate.
In assay [4] the test system is HOP-62 NSCLC.
The test system of assay [5] is SR leukemia.
For assay [6], the system named is CCRF-CEM leukemia.
For assay [7], the system named is M14 melanoma.
In assay [8] the test system is HCT-116 colon.
In assay [9] the test system is MDA-MB-435.
Assay [10] concerns SF-268 CNS.

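Each compound was tested at five concentrations against cells in 96-well plates for 48 hours. TGI marks complete inhibition of growth.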 Bounds are passed on as bounds.

Turning to `CSCCC(NC(=O)OC(C)(C)C)C(=O)NCCNc1ccc(NCCNC(=O)C(CCSC)NC(=O)OC(C)(C)C)c2c1C(=O)c1ccccc1C2=O` (stereo not given), the TGI in [1] is 5.41 µM; in [2] it was more than 100 µM; in assay [3] it was 33.2 µM; in [4], 8.2 µM; in assay [5] it was 11.3 µM; in assay [6] it was more than 38 µM. The TGI is 14.1 µM in [7], more than 29.6 µM in [8], 7.49 µM in assay [9] and 18.7 µM in assay [10].

As for `CN1CC(c2ccccc2)N(CCCCN2CC(c3ccccc3)N(C)CC2c2ccccc2)CC1c1ccccc1` (stereo not given), the TGI in assay [1], in assay [2], in assay [3], in [4], in assay [5] and in assay [6] was more than 100 µM throughout. Also, the TGI in assay [7] is more than 100 µM; in [8], 24.2 µM; in [9], more than 100 µM; in assay [10], more than 100 µM.

Take `COc1ccc2c(c1)CCc1c-2n(CCN(C)C)c2ccc(OC)cc12`: the TGI in assay [1] is more than 100 µM; in [2] it was more than 100 µM; in [3] it was more than 100 µM; in assay [4], 43.1 µM; in [5], more than 100 µM; in assay [6], 9.5 µM. In addition, the TGI in assay [7] was more than 100 µM; in assay [8], more than 100 µM; in assay [9], 32.6 µM; in assay [10], more than 100 µM.

Turning to `Cc1ccc(O)c(C2=NNC(c3cccc(Br)c3)C2)c1` (stereo not given), the TGI was more than 100 µM in assay [1]; 35.1 µM in assay [2]; more than 100 µM in assay [3]; more than 100 µM in assay [4]; more than 100 µM in [5]; more than 100 µM in assay [6]. The TGI in assay [7] was more than 100 µM; in [8], more than 100 µM; in [9], 46.8 µM; in assay [10] it was more than 100 µM.

For `O=C1C=CC(=O)c2ncccc21`, the TGI in [1] amounted to 7.64 µM; in [2], 5.72 µM; in assay [3] it was 20.4 µM; in assay [4], 28.6 µM; in [5], 5.88 µM; in assay [6], 3.29 µM. The TGI was 13.1 µM in assay [7], 4.27 µM in assay [8], 18.5 µM in assay [9] and 27.1 µM in assay [10].

`Cc1ccc(S(=O)(=O)N2CCN(CCN(C)CCN3CCN(S(=O)(=O)c4ccc(C)cc4)CC3)CC2)cc1`: the TGI in assay [1] was found to be 38.9 µM; in assay [2], 31.9 µM; in [3] it was 68.5 µM; in assay [4], 33 µM; in [5], 36.3 µM; in assay [6] it was 44.2 µM. Moreover, the TGI in [7] came to 31.2 µM; in assay [8], 35 µM; in assay [9] it was 32 µM; in [10] it was 40.1 µM.

Turning to `CC(C)(C)N1Cc2ccccc2/C(=C/Sc2ccccc2)C1=O`, the TGI is 39 µM in assay [1]; 37 µM in assay [2]; 32.7 µM in assay [3]; 33.8 µM in assay [4]; more than 39.4 µM in assay [5]; more than 100 µM in assay [6]. Also, the TGI in assay [7] is 25.2 µM; in [8], 19.8 µM; in assay [9], 20.1 µM; in assay [10] it was 20.2 µM.

Take `O=C(O)c1ccccc1/C=N\NC1=NCCCCN1`: the TGI in assay [1], in [2], in [3], in [4], in [5] and in assay [6] was more than 100 µM each time. The TGI in [7], in assay [8], in assay [9] and in [10] was more than 100 µM throughout.

`CCOC(=O)c1c(N2CCOCC2)[nH]c(=O)c(C(c2ccc(OC)cc2)c2c(O)c(C(=O)OCC)c(N3CCOCC3)[nH]c2=O)c1O`: the TGI in assay [1], in assay [2], in [3], in assay [4], in assay [5] and in assay [6] was more than 100 µM each time. For the same compound, the TGI in [7], in assay [8], in assay [9] and in [10] was more than 100 µM in each case.

As for `CCOC(=O)C1=C(C)NC(=S)NC1c1cccc(O)c1` (stereo not given), the TGI was more than 82.3 µM in [1]; more than 100 µM in assay [2]; more than 100 µM in assay [3]; more than 100 µM in assay [4]; more than 95.6 µM in [5]; more than 89.9 µM in [6]. Also, the TGI was 60.5 µM in assay [7], more than 100 µM in assay [8], 38 µM in assay [9] and more than 100 µM in assay [10].

With `CC1(C)[C@@H]2C[C@H]1c1cnc(-c3ccccn3)cc1C2[C@@H]1c2cc(-c3ccccn3)ncc2[C@@H]2C[C@H]1C2(C)C` (stereo not given in full), the TGI in assay [1], in assay [2], in assay [3], in [4], in assay [5] and in assay [6] was more than 100 µM in each case. Moreover, the TGI in assay [7], in assay [8], in assay [9] and in assay [10] was more than 100 µM each time.

As to `O=C(NCCNCCO)N/N=C/c1ccc(Cl)cc1`, the TGI in assay [1], in [2], in assay [3], in assay [4], in assay [5] and in assay [6] was more than 100 µM each time. Also, the TGI in [7], in assay [8], in [9] and in assay [10] was more than 100 µM each time.

In the case of `O=C(Nc1cccc(-c2cn3ccccc3n2)c1)c1ccncc1`, the TGI in [1] is 88.8 µM; in assay [2] it was more than 100 µM; in [3], more than 100 µM; in [4] it was more than 100 µM; in [5] it was 71.7 µM; in assay [6] it was 82.5 µM. Also, the TGI in assay [7], in assay [8], in assay [9] and in assay [10] was more than 100 µM throughout.

Turning to `CN1C2CC(=O)CC1[C@@H]1OC(c3ccccc3)O[C@H]21` (stereo not given in full), the TGI in assay [1], in assay [2], in assay [3], in [4], in assay [5] and in [6] was more than 100 µM in each case. For the same compound, the TGI in assay [7], in assay [8], in assay [9] and in [10] was more than 100 µM each time.

With `N#CCc1nc(C#N)c(N)o1`, the TGI in assay [1], in assay [2], in [3], in assay [4], in assay [5] and in assay [6] was more than 100 µM in each case. Further, the TGI in assay [7], in [8], in assay [9] and in assay [10] was more than 100 µM each time.

Regarding `CCN(CC)CCCNc1ccc2nnn3c4ccc(O)cc4c(=O)c1c23`, the TGI in assay [1] stood at 19.5 µM; in assay [2], 19.4 µM; in assay [3], 24.1 µM; in assay [4], 22.6 µM; in assay [5] it was 21.8 µM; in assay [6], 39.8 µM. Moreover, the TGI in assay [7] was found to be 23.6 µM; in assay [8], 16.3 µM; in assay [9], 22.1 µM; in [10], 18.6 µM.

With `CCCCCCCCCCCCCCCCCCOCC(O)COP(=O)(O)OCC1OC(n2cc(F)c(=O)[nH]c2=O)CC1O` (stereo not given), the TGI in [1] is 21.9 µM; in assay [2], 23.7 µM; in assay [3] it was 23.5 µM; in assay [4], 4.88 µM; in assay [5] it was 22.6 µM; in [6], 16.5 µM. For the same compound, the TGI is 15.5 µM in [7], 19.6 µM in assay [8], more than 52.1 µM in assay [9] and 36.5 µM in assay [10].

For `CCOC(=O)C(Cc1ccccc1)(Cc1ccc(O)cn1)NC(=O)c1ccccc1` (stereo not given), the TGI is 68.4 µM in [1]; more than 100 µM in assay [2]; more than 100 µM in assay [3]; more than 100 µM in [4]; more than 100 µM in [5]; more than 100 µM in assay [6]. In addition, the TGI was 40.5 µM in [7], 68.4 µM in assay [8], 30.1 µM in assay [9] and 61.7 µM in [10].

In the case of `O=C(NNC(=S)Nc1ccccc1)c1csc(NC(=S)NC2CCCCC2)n1`, the TGI in assay [1], in assay [2], in assay [3], in [4], in [5] and in assay [6] was more than 100 µM in each case. The TGI in assay [7], in assay [8], in assay [9] and in assay [10] was more than 100 µM throughout.

Take `CC#CC(O)(C(=O)OC1CCCN(C)C1)C1=CC=CCC1` (stereo not given): the TGI in [1], in [2], in assay [3], in assay [4], in assay [5] and in assay [6] was more than 100 µM in each case. Further, the TGI in [7], in assay [8], in [9] and in [10] was more than 100 µM each time.

The values are drawn from PubChem BioAssay (NCI).
